Measurements taken from patent US20100160214A1 (SERENITY PHARMACEUTICALS CORPORATION, priority 2008, published 2010).
Where two headings read alike, the source gives them in different places.

How the values were obtained:
[1] = in vivo, cited from earlier work
[2] = clinical; conditions: human, in vivo; for CL/F / bioavailability / Tmax / half-life: both; for bioavailability: F % (fraction bioavailable)
Method: The open-label preliminary study of the effects and pharmacokinetics of the prototype composition was conducted with six male and six female healthy, water loaded, non-smoking volunteer subjects, following the protocol described generally below. In summary, each subject was dosed up to four times over a period of one week with dosing administered every other day. […] All subjects were screened prior to the first treatment, including evaluations of medical history, complete physical exam including nasopharyngeal exam, serum chemistry including serum osmolality, urinalysis including urine osmolality.
On day one all subjects were asked to have his/her morning void prior to breakfast, and thereafter subjects started the water loading process. […] To achieve a steady state diuresis, the subjects were directed to drink a volume of water corresponding to at least 1.5% and up to 3% of body weight. The water loading process started about two hours prior to the dosing of the first subject. Subjects were asked to void every 20 minutes. To ensure continuous water loaded state, the subjects replaced their urinary output loss with an equivalent amount of fluid. Insensible loss was not measured or replaced. When the urinary output rate exceeded 10 ml/min in two consecutive measurements (defined as water loaded state) in the subjects, dosing began. Subjects were maintained in the water loaded state with equivalent fluid intake versus fluid loss.
Blood sampling for pharmacokinetic determinations was performed at 1, 1.5, 2, 3, 4 and 6 hours post dose. Two seven ml blood samples were collected at each time point. […] 3.2 (Pharsight Corporation, USA). A plasma concentration value below the limit of quantitation (“LOQ”) followed by values above the limit was set at ‘LOQ/2’ for the analysis and for the descriptive statistics on concentrations. Values below LOQ not followed by values above the LOQ were excluded from the analysis, and set to zero in the descriptive statistics on concentrations.
(§1) Other than the dose level, all procedures were the same as those described for day one.
as §1
Other than the dosing paradigm, all procedures were the same as described on day one.
Assay values below the level of detection that occurred between two non-zero concentrations were considered to be “missing” for purposes of calculating the AUC. […] Accordingly, an average terminal half-life (Avg T1/2) was calculated for each subject that included a treatment with evaluable half-lives in that subject. […] The AUC could be calculated for each treatment and subject using the calculated average T1/2 value.
The AUCall is the AUC calculated using the trapezoidal rule that assumes that the concentration declines to 0.00 at the next sample collection time following the last quantifiable concentration. In the cases where concentrations had not declined to below the limit of detection by the time of the last scheduled sample, AUCall was the same as AUCtlqc.
The AUCtlqc is the AUC as calculated to the Time of the Last Quantifiable Concentration. This value is extrapolated using the ratio of the last quantifiable concentration and the terminal elimination rate to give the AUC∞. Therefore AUC∞ is always larger than the AUCtlqc. AUCall will also always be equal to or greater than AUCtlqc, but may be larger or smaller than AUC∞.

CL/F [2]: 383 mL/min | bioavailability [2]: ~55% | CL/F ([2]; sc): 233 mL/min | Tmax ([2]; sc): 0.88 ± 0.349 h | half-life ([2]; sc, Avg T1/2): 1.68 ± 0.66 h | bioavailability ([2]; sc): 100% | half-life ([2]; sc, T1/2): 2.09 ± 0.32 h | Tmax ([2]; topical or ocular): 0.8 ± 0.406 h | half-life ([2]; topical or ocular, Avg T1/2): 1.2 ± 0.42 h | half-life ([2]; topical or ocular, T1/2): 1.39 ± 0.61 h | AUC∞* (modified AUC∞ using average T1/2) ([2]; sc): 0.00785 ± 0.00421 ng·h/mL | AUC∞* (modified AUC∞ using average T1/2) ([2]; topical or ocular): 0.00446 ± 0.00309 ng·h/mL
SMILES: NC(=O)CC[C@@H]1NC(=O)[C@H](Cc2ccccc2)NC(=O)[C@H](Cc2ccc(O)cc2)NC(=O)CCSSC[C@@H](C(=O)N2CCC[C@H]2C(=O)N[C@H](CCCN=C(N)N)C(=O)NCC(N)=O)NC(=O)[C@H](CC(N)=O)NC1=O [desmopressin, 1-desamino-8-D-arginine vasopressin]
bioavailability ([1]; human, inhaled or intranasal): 3-5% | half life ([1]; human): ≥ 1.5 h | range of Cmax ([1]; inhaled or intranasal, 20 ug): 6-10 fold | bioavailability ([1]; po): far less than one percent
